Source: ChEMBL document CHEMBL1142990, “Self-organizing maps for identification of new inhibitors of P-glycoprotein” (J Med Chem, 2007)

target: ATP-dependent translocase ABCB1 (Homo sapiens, UniProt P08183); experiment: Inhibition of P-glycoprotein expressed in MDR CCRF vcr1000 cells by daunorubicin efflux assay
Sequence (P08183 whole entry): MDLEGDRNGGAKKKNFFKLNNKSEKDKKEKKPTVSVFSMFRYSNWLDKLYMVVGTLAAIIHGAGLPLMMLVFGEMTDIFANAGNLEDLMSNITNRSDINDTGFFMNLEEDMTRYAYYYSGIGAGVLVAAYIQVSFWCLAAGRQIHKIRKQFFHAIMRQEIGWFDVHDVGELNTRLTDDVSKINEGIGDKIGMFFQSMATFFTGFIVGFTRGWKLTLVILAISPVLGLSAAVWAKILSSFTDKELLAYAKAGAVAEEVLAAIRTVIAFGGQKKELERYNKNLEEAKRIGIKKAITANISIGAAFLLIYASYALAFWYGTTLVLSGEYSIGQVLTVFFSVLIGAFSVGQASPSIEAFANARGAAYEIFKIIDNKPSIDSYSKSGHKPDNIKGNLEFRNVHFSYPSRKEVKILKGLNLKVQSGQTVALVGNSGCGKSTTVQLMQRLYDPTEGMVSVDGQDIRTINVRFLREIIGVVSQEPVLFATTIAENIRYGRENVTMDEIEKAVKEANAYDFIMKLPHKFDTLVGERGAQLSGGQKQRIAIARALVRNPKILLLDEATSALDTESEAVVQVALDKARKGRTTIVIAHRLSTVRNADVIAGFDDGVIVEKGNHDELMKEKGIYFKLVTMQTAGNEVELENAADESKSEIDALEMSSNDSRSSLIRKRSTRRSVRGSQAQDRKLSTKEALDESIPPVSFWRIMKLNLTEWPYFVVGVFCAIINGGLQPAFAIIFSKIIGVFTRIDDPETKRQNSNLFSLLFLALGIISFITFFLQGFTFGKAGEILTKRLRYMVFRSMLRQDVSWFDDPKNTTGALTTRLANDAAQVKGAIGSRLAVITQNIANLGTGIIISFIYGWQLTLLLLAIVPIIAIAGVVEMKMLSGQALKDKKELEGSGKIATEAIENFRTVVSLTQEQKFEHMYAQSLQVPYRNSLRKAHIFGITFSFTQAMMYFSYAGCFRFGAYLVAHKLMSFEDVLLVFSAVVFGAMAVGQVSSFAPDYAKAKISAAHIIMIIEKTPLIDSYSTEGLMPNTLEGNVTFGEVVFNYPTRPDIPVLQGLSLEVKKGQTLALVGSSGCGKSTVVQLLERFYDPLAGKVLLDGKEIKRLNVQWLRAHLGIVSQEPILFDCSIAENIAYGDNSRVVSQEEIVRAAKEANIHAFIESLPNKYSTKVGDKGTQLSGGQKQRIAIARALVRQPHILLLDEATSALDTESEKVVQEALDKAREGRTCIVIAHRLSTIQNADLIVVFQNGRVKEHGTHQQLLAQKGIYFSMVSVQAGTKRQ

Structure (SMILES) | EC50 [nM]
CN(C)CC(O)COc1ccccc1C(=O)CCc1ccccc1 (stereo not given) | 2480
CC(=O)c1ccccc1OCC(O)CN1CCN(c2ccc(F)cc2)CC1 (stereo not given) | 2090
CCC(=O)c1ccccc1OCC(O)CN1CCOCC1 (stereo not given) | 67000
COc1cccc(N2CCN(CC(O)COc3ccccc3C(=O)CCc3ccccc3)CC2)c1 (stereo not given) | 678
CC(=O)c1ccc(OCC(O)CN2CCCCC2)cc1 (stereo not given) | 49000
CC(=O)c1cccc(OCC(O)CN2CCOCC2)c1 (stereo not given) | 128000
CCOCCOC(=O)c1ccc(N)cc1 | 312000
COc1ccc(C2Nc3ccccc3C(=O)N2c2ccc(NC(C)=O)cc2)cc1 (stereo not given) | 20900
C=CCn1c(SCCCC)nc2c(c1=O)C1(CCCC1)Cc1ccccc1-2 | 3500
CC(=O)c1c(C)cc(C)c(CSc2nc3ccc(NC(=O)c4ccc(C(C)(C)C)cc4)cc3s2)c1C | 280
CCOc1ccccc1NC(=O)C1=C(C)NC(=S)NC1c1cccs1 (stereo not given) | 8770
CCOC(=O)C(=NNc1c(Cl)cc(Cl)cc1Cl)C(=O)OCC | 17700
CC(=O)c1c(C)cc(C)c(CSc2nc3ccc(NC(=O)c4cccc5ccccc45)cc3s2)c1C | 110
Cc1ccccc1N1CCN(CC(O)COc2ccccc2C(=O)CCc2ccc(N(C)C)cc2)CC1 (stereo not given) | 13
CCOc1ccc(N2C(=O)c3ccccc3NC2c2ccc(N(C)C)cc2)cc1 (stereo not given) | 25100
CC(=O)c1ccccc1OCC(O)CN1CCOCC1 (stereo not given) | 207000
COc1cccc(/C=N/NC(=O)C(=O)NC(C)(C)C)c1O | 102000
CCc1ccc(N2C(=O)c3ccccc3NC2c2ccc(OCc3ccccc3)cc2)cc1 (stereo not given) | > 100000
Cn1cc(I)c(C(=O)NNC(=O)c2ccnn2C)n1 | > 500000
COc1ccc(C2Nc3ccccc3C(=O)N2c2ccc(Oc3ccccc3)cc2)cc1 (stereo not given) | 1000
O=C(N/N=C/c1c(F)cccc1Cl)C(=O)N1CCCCCC1 | 159000
CC(=O)c1c(C)cc(C)c(CSc2nc3ccc(NC(=O)CCc4ccccc4)cc3s2)c1C | 300
Cc1ccc(-c2n[nH]c3c2C(c2ccc(N(C)C)cc2)C(C#N)=C(N)O3)cc1 (stereo not given) | 3080

Structure (SMILES) | EC50 [nM]
CCc1ccc(N2C(=O)c3ccccc3NC2c2ccc(OCC(C)C)cc2)cc1 (stereo not given) | 1210
CC(C)(C)c1ccc(N2C(=O)c3ccccc3NC2c2ccc3c(c2)OCO3)cc1 (stereo not given) | 730
CC(C)(C)c1ccc(C(=O)Nc2ccc3nc(SCc4cccc5ccccc45)sc3c2)cc1 | > 20000
CC(C)(C)c1ccc(CSc2nc3ccc(NC(=O)c4ccc(C(C)(C)C)cc4)cc3s2)cc1 | > 50000
COc1ccc(-n2c(C3=NNC(=O)CC3)n[nH]c2=S)cc1 | > 250000
Clc1ccccc1-c1nc(N2CCCC2)c2ccccc2n1 | 5940
O=C(CCc1ccccc1)c1ccccc1OCC(O)CN1CCN(c2ccc(F)cc2)CC1 (stereo not given) | 70
O=C(CCc1ccccc1)c1ccccc1OCC(O)CN1CCC(O)(c2ccccc2)CC1 (stereo not given) | 58
O=C(CCc1ccccc1)c1ccccc1OCC(O)CN1CCN(Cc2ccccc2)CC1 (stereo not given) | 659
COc1ccccc1N1CCN(CC(O)COc2ccccc2C(=O)CCc2ccccc2)CC1 (stereo not given) | 230
CCC(C)c1ccc(C2Nc3ccccc3C(=O)N2c2ccc(Cl)cc2)cc1 (stereo not given) | 820
CCC(C)c1ccc(N2C(=O)c3ccccc3NC2c2ccc(C(C)C)cc2)cc1 (stereo not given) | 290
COc1ccc(CC(O)CO)cc1OC (stereo not given) | > 500000
CCCCOc1ccc(C(=O)Nc2ccc3nc(SCc4c(C)cc(C)c(C(C)=O)c4C)sc3c2)cc1 | 97
Cc1cc(C)n(-c2nnc(N/N=C\c3cccnc3)nn2)n1 | 158000
CCC(C)c1ccc(N2C(=O)c3ccccc3NC2c2ccc(OC)cc2)cc1 (stereo not given) | 760
CCCN(C)CC(O)COc1ccccc1C(=O)CCc1ccccc1 (stereo not given) | 416
CN(C)c1ccc(-c2nc(C(F)(F)F)nc(C(F)(F)F)n2)cc1 | > 100000
CCN(CC)CC(O)COc1ccccc1C(=O)c1ccccc1 (stereo not given) | 2320
COc1ccc(N2CCN(CC(O)COc3ccccc3C(=O)CCc3ccccc3)CC2)cc1 (stereo not given) | 256
O=C(CCc1ccccc1)c1ccccc1OCC(O)CN1CCOCC1 (stereo not given) | 3650
Cc1ccccc1N1CCN(CC(O)COc2ccccc2C(=O)CCc2ccccc2)CC1 (stereo not given) | 27
